Where two headings read alike, the source gives them in different places. Blank lines part the entries; values can stand above or below the compound they belong to.
Target: HIV-1 protease (Human immunodeficiency virus type 1 group M subtype B, UniProt P04585)
Assay: HIV protease screening assay (fluorescently labeled biotinylated substrate, streptavidin beads), percent inhibition
Assay type: biochemical
Description: The HIV protease screening assay is based on fluorescently labeled substrate which can be resolved from nonlabeled cleavage product using special beads coated with streptavidin. The substrate is biotinylated at the amino terminal arginine and fluorescently labeled with fluorescein isothiocynate (FITC) at the carboxyl terminal lysine. This assay has been employed to detect novel, nonpeptidic inhibitors of HIV-1 protease. Substrate (20 μl of 0.2 μM), sample (10 μl of desired concentration), and enzyme (10 μl of 0.1 μM) are added to a 96 well pandex plate. The assay is run in 0.1 M sodium acetate buffer at pH 5.5 in the presence of 1.0 M sodium chloride and 0.05% NP-40 with incubated in the dark for one hour at room temperature. Strepavidin coated polystyrene beads {40 μl of 0.1% (w/v)} are added and the plate is incubated in the dark for an additional half hour. The labeled cleavage product is separated from the unreacted substrate via filtration and is read on the Idexx screen machine. The data are analyzed by appropriate computer algorithms to ascertain percent inhibition values.

[1] = 10 μM (Table 1), read-out: % Protease Inhibition
[2] = 10 μM (Table 3), read-out: % Protease Inhibition
[3] = 10 μM (Table 2), read-out: % Protease Inhibition
[4] = 3.3 μM (Table 5), read-out: % HIV Protease Inhibition
[5] = 10 μM (Table 5), read-out: % HIV Protease Inhibition

inhibition at 10 µM [1]: 16%
% Protease Inhibition (3.3-3.7 μM (Table 1)): < 10%
Structure (SMILES): Cc1sc2ncc(C(O)C#Cc3ccccc3)n2c1C (stereo not drawn) [Example 1, 2,3-Dimethyl-α-(2-phenylethynyl)imidazo-[2,1-b]thiazole-5-methanol]

inhibition at 10 µM [1]: 86%
% Protease Inhibition (1.1-1.3 μM (Table 1)): < 10%
% Protease Inhibition (3.3-3.7 μM (Table 1)): 27%
Structure (SMILES): Cc1sc2ncc(C(O)Cc3ccccc3)n2c1C (stereo not drawn) [Example 2, 2,3-Dimethyl-α-(2-phenylmethyl)imidazo-[2,1-b]thiazole-5-methanol]

inhibition at 10 µM [2]: < 10%
inhibition at 30 µM (30 μM (Table 3 footnote)): 48.9%
% Protease Inhibition (1-1.2 μM (Table 3)): < 10%
% Protease Inhibition (3.3-3.7 μM (Table 3)): < 10%
Structure (SMILES): Cc1csc2ncc(C(C)(O)/C=C/c3ccccc3)n12 (stereo not drawn) [Example 5, α,3-Dimethyl-α-(E-2-phenyl-E-ethenyl)imidazo[2,1-b]thiazole-5-methanol]

inhibition at 10 µM [3]: 51%
% Protease Inhibition (1.1-1.3 μM (Table 2)): < 10%
% Protease Inhibition (3.3-3.7 μM (Table 2)): < 10%
Structure (SMILES): Cc1csc2ncc(C(O)CC(C)c3ccccc3)n12 (stereo not drawn) [Example 6, 3-Methyl-α-(2-phenylpropyl)imidazo[2,1-b]thiazole-5-methanol]

inhibition at 10 µM [2]: 14.5%
% Protease Inhibition (1-1.2 μM (Table 3)): < 10%
% Protease Inhibition (3.3-3.7 μM (Table 3)): < 10%
Structure (SMILES): Cc1csc2ncc(C(C)(O)CCc3ccccc3)n12 (stereo not drawn) [Example 7, α,3-Dimethyl-α-(2-phenylethyl)imidazo[2,1-b]thiazole-5-methanol]

inhibition at 10 µM [3]: 79%
% Protease Inhibition (1.1-1.3 μM (Table 2)): < 10%
% Protease Inhibition (3.3-3.7 μM (Table 2)): 32%
Structure (SMILES): Cc1csc2ncc(C(O)CCc3ccccc3)n12 (stereo not drawn) [Example 8, 3-Methyl-α-(2-phenylethyl)imidazo[2,1-b]thiazole-5-methanol]

inhibition at 10 µM [3]: 83%
% Protease Inhibition (1.1-1.3 μM (Table 2)): < 10%
% Protease Inhibition (3.3-3.7 μM (Table 2)): 22%
Structure (SMILES): Cc1csc2ncc(C(O)CCc3ccc(Br)cc3)n12 (stereo not drawn) [Example 9, 3-Methyl-α-(4-bromophenylethyl)imidazo[2,1-b]thiazole-5-methanol]

inhibition at 10 µM [3]: 58%
% Protease Inhibition (1.1-1.3 μM (Table 2)): < 10%
% Protease Inhibition (3.3-3.7 μM (Table 2)): 12%
Structure (SMILES): Cc1csc2ncc(C(O)CCCCc3ccccc3)n12 (stereo not drawn) [Example 10, 3-Methyl-α-(4-phenylbutyl)imidazo-[2,1-b]thiazole-5-methanol]

inhibition at 1.1 µM (1.1 μM (Table 4), read-out: Protease Inhibition, % Inhibition): 39%
Structure (SMILES): OC(CCc1ccccc1)c1cnc2sc3c(n12)CCC3 (stereo not drawn) [Example 13, 6,7-Dihydro-α-(2-phenylethyl)-5H-cyclopent[d]imidazo[2,1-b]thiazole-3-methanol]

inhibition at 3.3 µM [4]: 28%
inhibition at 10 µM [5]: 94%
Structure (SMILES): OC(CCc1ccccc1)c1cnc2sc3ccccc3n12 (stereo not drawn) [Example 18, α-(2-phenylethyl)-imidazo[2,1-b]benzothiazole-3-methanol]

inhibition at 3.3 µM [4]: 59%
inhibition at 10 µM [5]: 92%
Structure (SMILES): Cc1ccc2c(c1)sc1ncc(C(O)CCc3ccccc3)n12 (stereo not drawn) [Example 19, 7-Methyl-α-(2-phenylethyl)imidazo[2,1-b]benzothiazole-3-methanol]

inhibition at 3.3 µM [4]: 43%
inhibition at 10 µM [5]: 88%
Structure (SMILES): OC(CCc1ccccc1)c1cnc2sc3cc(F)ccc3n12 (stereo not drawn) [Example 20, 7-Fluoro-α-(2-phenylethyl)imidazo[2,1-b]benzothiazole-3-methanol]

inhibition at 3.3 µM [4]: 80%
inhibition at 10 µM [5]: 93%
Structure (SMILES): COc1ccc2c(c1)sc1ncc(C(O)CCc3ccccc3)n12 (stereo not drawn) [Example 21, 7-Methoxy-α-(2-phenylethyl)imidazo[2,1-b]benzothiazole-3-methanol]

inhibition at 1.1 µM (1.1 μM (Table 7), read-out: PROTEASE INHIBITION): 24%
inhibition at 3.3 µM (3.3 μM (Table 7), read-out: PROTEASE INHIBITION): 57%
inhibition at 10 µM (10 μM (Table 7), read-out: PROTEASE INHIBITION): 66%
Structure (SMILES): OC(/C=C/c1cccc(F)c1)c1cnc2sc3c(n12)CCCCC3 (stereo not drawn) [Example 22, α-[2-(3-Fluorophenyl)ethenyl]-6,7,8,9-tetrahydro-5H-imidazo[2,1-b]thiazole-3-methanol]

inhibition at 1.1 µM (1.1 μM (Table 6), read-out: PROTEASE INHIBITION): 35%
inhibition at 3.3 µM (3.3 μM (Table 6), read-out: PROTEASE INHIBITION): 64%
Structure (SMILES): OC(CCc1cccc(F)c1)c1cnc2sc3c(n12)CCCCC3 (stereo not drawn) [Example 23, α-[2-(3-Fluorophenyl)ethyl]-6,7,8,9-tetrahydro-5H-cyclohept[d]imidazo[2,1-b]thiazol-3-methanol]

Source: patent US6191124A, “Methanol derivatives for treatment of retroviral infections especially HIV infections” (priority 1997, dated 2001)
